# Reference: ChEMBL document CHEMBL1201862, “PubChem BioAssay data set” (2004)
#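 In this assay, cells in 96-well plates receive the compound at five concentrations for 48 hours. Endpoints are linearly interpolated between the surrounding concentrations. Abbreviation: GI50, concentration required for 50% inhibition of growth.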 Activity calls are given as the source filed them. No stated cut-off is given here; in the data, active = GI50 up to about 1.1 µM and inactive = higher.
# What was measured:
# Test in all cases: NCI tumour cell line growth inhibition, 48 h
# HCT-116 = system: HCT-116
# NCI-H23 = system: NCI-H23
# KM12 = system: KM12
# HT-29 = system: HT-29
# UACC-257 = system: UACC-257
# RPMI-8226 = system: RPMI-8226
# SN12C = system: SN12C
# A549 = system: A549
# K562 = system: K562
# A498 = system: A498
# SK-MEL-2 = system: SK-MEL-2
# HL-60 = system: HL-60
# NCI-H460 = system: NCI-H460
# OVCAR-5 = system: OVCAR-5
# HOP-62 = system: HOP-62
# SF-539 = system: SF-539
# NCI-H226 = system: NCI-H226
# HCT-15 = system: HCT-15
# SK-OV-3 = system: SK-OV-3
# RXF 393 = system: RXF 393
Structure (SMILES),GI50 (HCT-116),GI50 (NCI-H23),GI50 (KM12),GI50 (HT-29),GI50 (UACC-257),GI50 (RPMI-8226),GI50 (SN12C),GI50 (A549),GI50 (K562),GI50 (A498),GI50 (SK-MEL-2),GI50 (HL-60),GI50 (NCI-H460),GI50 (OVCAR-5),GI50 (HOP-62),GI50 (SF-539),GI50 (NCI-H226),GI50 (HCT-15) [µM],GI50 (SK-OV-3),GI50 (RXF 393)
COc1ccc(/C=C2\CCC/C(=C\c3ccc(O)c(CN4CCCCC4)c3)C2=O)cc1,2.82 µM (inactive),4.93 µM (inactive),2.3 µM (inactive),2.3 µM (inactive),4.76 µM (inactive),3.89 µM (inactive),4.76 µM (inactive),8 µM (inactive),3.96 µM (inactive),9.57 µM (inactive),11.2 µM (inactive),6.93 µM (inactive),4.98 µM (inactive),22.5 µM (inactive),12.4 µM (inactive),3.08 µM (inactive),6.67 µM (inactive),3.52,22.3 µM (inactive),20.3 µM (inactive)
O=C(Nc1ccc([N+](=O)[O-])cc1)C(=O)C(C(=O)c1ccccc1F)C1OC(=O)c2ccccc21 (stereo not given),31.6 µM (inactive),81.1 µM (inactive),42.4 µM (inactive),51.9 µM (inactive),86.5 µM (inactive),18.2 µM (inactive),30.8 µM (inactive),67.6 µM (inactive),25.3 µM (inactive),80.9 µM (inactive),23.7 µM (inactive),22.2 µM (inactive),34.9 µM (inactive),58.3 µM (inactive),58.1 µM (inactive),21.5 µM (inactive),16.6 µM (inactive),29.9,41.2 µM (inactive),50.9 µM (inactive)
COc1ccc2c(O)c3[n+](cc2c1OC)CCc1cc2c(cc1-3)OCO2,41.8 µM (inactive),> 100 µM (inactive),66.1 µM (inactive),63.2 µM (inactive),> 100 µM (inactive),84.3 µM (inactive),> 100 µM (inactive),> 100 µM (inactive),38.5 µM (inactive),61.5 µM (inactive),> 100 µM (inactive),33.2 µM (inactive),79.4 µM (inactive),> 100 µM (inactive),> 100 µM (inactive),> 100 µM (inactive),> 100 µM (inactive),84.3,> 100 µM (inactive),25.4 µM (inactive)
